The results in this text go back to patent US10898548B2, “Modulators of protein tyrosine phosphatase and uses thereof” (LEUVAS THERAPEUTICS, priority 2015, dated 2021).

One assay concerns U251 cells. Briefly: TUNEL labeling assay, U251 cells. In kind it is cell-based. The settings on record: 50 μM P1-WD. The protocol: Briefly, U251 GBM cells, normal primary cortical murine neurons and a mixed culture of murine microglia and astrocytes were treated for 24, 48 and 72 hours with no treatment (control), delivery peptide (P1 or TAT) or increasing concentrations of P1-WD or TAT-ICD. Cell viability and survival was measured using the MTT assay, a colorimetric assay for assessing cell metabolic activity set up under conditions where the absorption reflects the number of viable cells present (Table 21 and 22) and expressed as relative absorption at 570 nm. Early apoptosis was measured using VYBRANT DyeCycle Violet stain (Molecular Probes), a DNA-selective, cell membrane-permeant dye that can distinguish the compacted state of the nuclear chromatin in apoptotic cells as determined by flow cytometry and presented as the percent of cells that are apoptotic (Table 23 and 24). The actual number of cells following treatment with TAT-ICD or TAT alone (Table 25) was determined using flow cytometry compared to an input of 5,000 cells at time zero. To confirm apoptosis the TUNEL labeling assay, which detects DNA strand breaks in apoptotic cells by fluorescence microscopy, was also used to examine U251 cells treated with the PTPRG WD. Briefly, the assay used an optimized terminal transferase ([…]) to label 3′OH ends in genomic DNA with TMR-dUTP, thus allowing the measurement and quantification of cell death by apoptosis. U251 cells were pretreated for 1, 3 and 6 hours with 50 μM P1-WD. Then cells were fixed and permeabilized, incubated with TUNEL reaction mixture for 1 h at RT, and then stained with DAPI (for nuclei detection) and with Alexa670-Phalloidin (to detect actin in cell membranes). After the staining steps, cells were visualized with a confocal microscope.
This finding was validated using the TUNEL in situ apoptosis cell death detection staining.

Assay [1] concerns human primary monocytes. Description: static adhesion of fMLP-stimulated monocytes to fibrinogen. It counts as cell-based. Also on record: fMLP-triggered static adhesion to fibrinogen: unit not given here. The settings on record: CTRL 100; for fMLP-triggered static adhesion to fibrinogen: monocytes; for fMLP-induced adhesion to fibrinogen: 40 μM P1 or P1-TKIP, 100 μM AG490, 200 μM WHI-P154, 1 hour, 50 nM fMLP 60 sec. The protocol:
We investigated the functional effect of PTPRG activation on integrin activation and mediated adhesion by chemoattractants in human primary monocytes and PMNs in a static and flow adhesion assays. Briefly, human primary monocytes or polymorphonuclear cells were suspended at 5×10^6/ml in standard adhesion buffer. Adhesion assays were performed on 18-well glass slides coated with 1 mg/ml human fibrinogen or with 1 μg/ml human ICAM-1 in PBS; 20 μl of cell suspension were added to the coated wells and stimulated for 1 min at 37° C. with 5 μl of fMLP, 0.05 μM final concentration. After rapid washing, adherent cells were fixed in ice-cold 1.5% glutaraldehyde in PBS, and still images of adherent cells in 0.2 mm^2 fields were acquired al 20× phase contrast magnification, NA 0.40, with a charge-coupled device camera (ICD-42B; Ikegami) connected to an inverted microscope (IX50; Olympus). Image acquisition and computer-assisted enumeration of adherent cells were performed with ImageJ (National Institute of Health). […]
(§1) To evaluate whether JAK2 mediates chemoattractant-induced adhesion of human monocytes to beta-2 integrin substrates human monocytes were treated control buffer or P1 or with the three JAK inhibitors. Briefly, human monocytes were treated with buffer (CTRL=control), or 40 μM P1 or P1-TKIP peptides, 100 μM AG490 or 200 μM WHI-P154 for 1 hour at 37° C. and stimulated with 50 nM fMLP for 60 sec.; data are mean and standard deviation (SD) of 6 experiments in triplicate.

Another assay has as its system LFA-1. Description: LFA-1 high affinity state detection with 327C mAb. It counts as cell-based, human. The settings on record: CTRL 100; for LFA-1 high affinity state, mean fluorescence intensity relative to the fMLP-stimulated control: monocytes, 50 nM fMLP 1 min, concentration not given; for LFA-1 high affinity state, percentages of fold-increase over control: 50 μM TAT peptides or 0.5 μM TAT-ICD, 1 hour, 50 nM fMLP 60 seconds; for LFA-1 high affinity state, percentages of fold increases over the control: 40 μM P1 or P1-TKIP, 100 μM AG490, 200 μM WHI-P154, 1 hour, 50 nM fMLP 60 sec. As for the experimental part: The ability of P1-WD to inhibit triggering of LFA-1 to a high-affinity state was assessed using a specific reporter monoclonal antibody 327C, which detects the fully extended LFA-1 conformational epitope corresponding to heterodimer high affinity state. Briefly, freshly isolated human monocytes were suspended in standard adhesion buffer at 2×10^6/ml were stimulated under stirring at 37° C. for 1 min with 50 nM fMLP in the presence of 10 µg/ml 327C mAb. After rapid washing, the cells were stained with FITC-conjugated secondary antibody and analyzed by cytofluorimetric quantification (Table 4). Data are mean fluorescence intensity measured by flow cytometry relative to the fMLP-stimulated control (CTRL) cells.
The ability of TAT-ICD to trigger the high affinity state of LFA-1 was tested as described in Example 2, Table 4 and the results are in Table 8. Human monocytes were treated with buffer (CTRL), 50 μM TAT peptides, or 0.5 μM TAT-ICD for 1 hour at 37° C. and stimulated with 50 nM fMLP for 60 seconds. Data are the percentages of fold-increase over control; mean values of 6 experiments
Briefly, LFA-1 high affinity state detection. Human monocytes were treated with buffer (CTRL=control), 40 μM P1 or P1-TKIP peptides, 100 μM AG490 or 200 μM WHI-P154 for 1 hour at 37° C. and stimulated with 50 nM fMLP for 60 sec. LFA-1 high affinity state conformer was detected by cytofluorimetric analysis with 327C antibody. Shown are percentages of fold increases over the control; mean values of 5 experiments.

The subject of assay [2] is human primary monocytes. Briefly: static adhesion of fMLP-stimulated monocytes to ICAM-1. In kind it is cell-based. As to conditions: CTRL 100; for fMLP-triggered static adhesion to ICAM-1: monocytes; for fMLP-induced adhesion to ICAM-1: 40 μM P1 or P1-TKIP, 100 μM AG490, 200 μM WHI-P154, 1 hour, 50 nM fMLP 60 sec. As for the experimental part:
We investigated the functional effect of PTPRG activation on integrin activation and mediated adhesion by chemoattractants in human primary monocytes and PMNs in a static and flow adhesion assays. Briefly, human primary monocytes or polymorphonuclear cells were suspended at 5×10^6/ml in standard adhesion buffer. Adhesion assays were performed on 18-well glass slides coated with 1 mg/ml human fibrinogen or with 1 μg/ml human ICAM-1 in PBS; 20 μl of cell suspension were added to the coated wells and stimulated for 1 min at 37° C. with 5 μl of fMLP, 0.05 μM final concentration. After rapid washing, adherent cells were fixed in ice-cold 1.5% glutaraldehyde in PBS, and still images of adherent cells in 0.2 mm^2 fields were acquired al 20× phase contrast magnification, NA 0.40, with a charge-coupled device camera (ICD-42B; Ikegami) connected to an inverted microscope (IX50; Olympus). Image acquisition and computer-assisted enumeration of adherent cells were performed with ImageJ (National Institute of Health).
We then investigated the functional effect of TAT-ICD on integrin activation and mediated adhesion by chemoattractants. Static adhesion assays were performed as described in Example 2. […] Data are mean number of adherent cells in 5 experiments in triplicate.
as §1
Human primary monocytes were isolated from buffy coats from healthy donors and pre-incubated for 30 minutes at room temperature with our without 0.075 micromolar PTPX. Standard adhesion assays on ICAM-1 coated glass slides. Cell suspensions were added to the coated wells for 1 minute, stimulated for 1 minute at 37° C. with […] fMLP. Non-adherent cells were washed away and adherent cells were fixed in ice-cold 1.5% glutaraldehyde in PBS and adherent cells were counted using computer assisted automatic quantification. Data are from a representative experiment and are the mean and standard deviation of 24 measurements per condition (Table 35).

The mark [3] stands for this setting: control peptide, concentration not given.

Take “P1-WD: fusion Trojan peptide SEQ ID 3: Penetratin, glycine, PTPRG wedge domain aa 831-856; RQIKIWFQNRRMKWKKGKQFVKHIGELYSNNQHGFSEDFEEVQ (listed as Homo sapiens)”: in the assay with U251 cells, the “DNA fragmentation, TUNEL staining” value was “fragmented DNA as early as 3 hours after initiation of treatment”. In addition, the “fMLP-triggered static adhesion to fibrinogen” value with human primary monocytes [1] (P1-WD 10 micromolar) came to 41; in the assay on human primary monocytes [1] (P1-WD 25 micromolar) it was 18; with human primary monocytes [1] (P1-WD 50 micromolar), 16. In the assay with LFA-1, the “LFA-1 high affinity state, mean fluorescence intensity relative to the fMLP-stimulated control” value came out at 22. Further, the “fMLP-triggered static adhesion to ICAM-1” value in the assay with human primary monocytes [2] (P1-WD 10 micromolar) is reported as 78; in the assay on human primary monocytes [2] (P1-WD 25 micromolar), 40; in the assay with human primary monocytes [2] (P1-WD 50 micromolar), 19.

As to “TAT-ICD: fusion recombinant protein SEQ ID 5: PTPRG intracellular domain aa 797-1445 fused to 13 aa TAT sequence”, the “fMLP-triggered static adhesion to fibrinogen” value is 45.4 with human primary monocytes [1] (0.01 μM); 35.5 in the assay on human primary monocytes [1] (0.05 μM); 27.9 in the assay on human primary monocytes [1] (0.10 μM); 20.1 in the assay with human primary monocytes [1] (0.5 μM); 14.0 in the assay with human primary monocytes [1] (1 μM). Also, the “LFA-1 high affinity state, percentages of fold-increase over control” value in the assay on LFA-1 stood at 24.3%. The “fMLP-triggered static adhesion to ICAM-1” value in the assay with human primary monocytes [2] (0.01 μM) turned out to be 48; in the assay on human primary monocytes [2] (0.05 μM), 36; in the assay with human primary monocytes [2] (0.10 μM), 30; in the assay on human primary monocytes [2] (0.5 μM), 14; in the assay with human primary monocytes [2] (1 μM) it was 10.

On to “TAT (GRKKRRQRRRPPQ; listed as Homo sapiens) [reference compound]”, for which the “DNA fragmentation, TUNEL staining” value with U251 cells was “did not show fragmented DNA or cell loss”. Besides, the “fMLP-triggered static adhesion to fibrinogen” value was 100 in the assay with human primary monocytes [1] (0.5 μM) and 98 with human primary monocytes [1] (1 μM). Further, the “LFA-1 high affinity state, percentages of fold-increase over control” value in the assay on LFA-1 is 85.3%. The entries for the “fMLP-triggered static adhesion to ICAM-1” value in the assay on human primary monocytes [2] (0.5 μM) and in the assay on human primary monocytes [2] (1 μM) were 100 and 110, respectively.

As to `COc1cc2ncnc(Nc3ccc(O)c(Br)c3)c2cc1OC` [WHI-P154], the fMLP-induced adhesion to fibrinogen with human primary monocytes [1] was 18%. The “LFA-1 high affinity state, percentages of fold increases over the control” value in the assay on LFA-1 is recorded as 58%. For the same molecule, the fMLP-induced adhesion to ICAM-1 with human primary monocytes [2] amounted to 6.4%.

With “P1: Penetratin delivery peptide, 16 aa RQIKIWFQNRRMKWKK (SEQ ID 4), control [reference compound]”, in the assay with U251 cells, the “DNA fragmentation, TUNEL staining” value is listed as “did not show fragmented DNA or cell loss”. Further, in the assay on human primary monocytes [1], the fMLP-induced adhesion to fibrinogen is 110%. Besides, the “fMLP-triggered static adhesion to fibrinogen” value in the assay with human primary monocytes [1] (setting [3]) was determined as 94. In addition, in the assay on LFA-1, the “LFA-1 high affinity state, percentages of fold increases over the control” value was found to be 90% and the “LFA-1 high affinity state, mean fluorescence intensity relative to the fMLP-stimulated control” value was 91. The molecule further gave a fMLP-induced adhesion to ICAM-1 with human primary monocytes [2] of 101%. In addition, the “fMLP-triggered static adhesion to ICAM-1” value in the assay with human primary monocytes [2] (setting [3]) is 102.

`N#C/C(=C/c1ccc(O)c(O)c1)C(=O)NCc1ccccc1` [AG490]: in the assay with human primary monocytes [1], the fMLP-induced adhesion to fibrinogen is 32.8%. For the same molecule, the “LFA-1 high affinity state, percentages of fold increases over the control” value in the assay on LFA-1 is recorded as 66%. This molecule displayed a fMLP-induced adhesion to ICAM-1 in the assay with human primary monocytes [2] of 23.5%.
